Results on four compounds are retold here after patent US20260223845A1, “METHOD FOR PRODUCING TRYPTOPHAN DECOMPOSITION PRODUCT, METHOD FOR PRODUCING FORMYLKYNURENINE, METHOD FOR PRODUCING KYNURENINE, METHOD FOR PRODUCING TRYPTOPHAN RADICAL-CONTAINING AQUEOUS SOLUTION, AND BACTERICIDAL AQUEOUS SOLUTION” (NATIONAL UNIVERSITY CORPORATION TOKAI NATIONAL HIGHER …, priority 2023, published 2026).

The subject of one data set is Escherichia coli. As to the kind of experiment: Bactericidal effect test of redissolved HPLC fractions on Escherichia coli suspension, colony counting method. The format is cell-based. The following applies: component redissolved in ultrapure water, liquid temperature 24° C., mixed with Escherichia coli suspension, counted after 10 minutes; FIG. 5. How it is done: Each aqueous solution (liquid temperature: 24° C.) prepared by redissolving each component in ultrapure water was mixed with a suspension of Escherichia coli, and after 10 minutes, the viable cell count of Escherichia coli was measured by a colony counting method. The viable cell count of Escherichia coli was also measured in the same manner for the oxygen radical-unirradiated aqueous solution.

The nature of data set [1]: Bactericidal effect of oxygen radical-irradiated tryptophan-containing aqueous solution (previous research of the inventors; inference in Experimental Examples 1 to 3). The following applies: inferred from inactive FKYN, KYN, L-Trp fractions and ESR detection of Trp⋅. It is filed as cell-based. The text has this:
Therefore, in this experimental example, an attempt was made to detect Trp⋅ by electron spin resonance (ESR) spectroscopy.
Here, as shown in FIG. 12 (b), it is known that Trp. is generated by the reaction between Trp and OH⋅. […] In the formulae in FIG. 12(b), X is indicated because it is thought that OH extracts H from Trp and X becomes H2O, but what is actually formed has not been accurately confirmed at this stage.
From the above-described Experimental Examples 1 to 3, it was confirmed that the substances primarily generated by irradiating the tryptophan-containing aqueous solution with oxygen radicals are FKYN and KYN. In addition, Trp⋅, considered to be a precursor of FKYN and KYN, was detected by ESR measurement from the oxygen radical-irradiated aqueous solution. Based on the above, it is considered that short-lived precursors of FKYN and KYN (Trp⋅ and Trp peroxide) are also expressed in large quantities by the oxygen radical irradiation in terms of total generation concentration, and it can be said that the above-described precursors are bactericidal substances.

The conditions of data set [2]: maintaining a temperature of 15° C. or lower; cited from earlier work.
Data set [3] can be described thus: Lifespan of tryptophan radical in aqueous solution. It is filed as physicochemical. The conditions noted are these: in oxygen radical-irradiated aqueous solution. The text has this:
The precursor generated from Trp may be composed solely of Trp⋅, may be composed solely of Trp peroxide, or may include both Trp⋅ and Trp peroxide. […] Trp⋅ can be detected by electron spin resonance (ESR) spectroscopy. FKYN is generated by cleavage of a pyrrole ring in Trp peroxide. This cleavage occurs naturally in an aqueous solution. In other words, Trp peroxide decomposes on its own. Furthermore, since the generation of FKYN has been confirmed in the present disclosure, it is inferred that Trp peroxide is also generated, despite having a short lifespan. KYN is generated by the decomposition of FKYN.

Where two headings read alike, the source gives them in different places.

For the compound `N[C@@H](Cc1c[nH]c2ccccc12)C(=O)O` [L-Trp, L-tryptophan], in the data set with Escherichia coli, the “bactericidal effect (viable cell count of Escherichia coli)” value is given as “not bactericidal substances”.
In the case of `NC(CC(=O)c1ccccc1NC=O)C(=O)O` (stereo not drawn) [component P1, formylkynurenine], in the data set on Escherichia coli, the “bactericidal effect (viable cell count of Escherichia coli)” value is listed as “not bactericidal substances”.
For the compound `Nc1ccccc1C(=O)CC(N)C(=O)O` (stereo not drawn) [component P2, kynurenine], the “bactericidal effect (viable cell count of Escherichia coli)” value with Escherichia coli is recorded as “not bactericidal substances”.
For tryptophan radical [Trp⋅], the bactericidal effect result in data set [1] is given as “has a bactericidal effect”. In addition, the lifespan entry in data set [2] is “can be extended”; in data set [3] it was “short-lived substance”.
